Test results published in patent publication US8227457B2, “Method for treatment of diseases” (DMI Acquisition Corp., priority 2009, dated 2012).

What was measured:
[1] = tested on: Primary human umbilical vein endothelial cells (HUVECs); test: HUVEC cell proliferation (Celltiter 96 AQueous One Solution assay); type: cell-based; conditions: 100 μM danazol, all time points
Procedure: Primary human umbilical vein endothelial cells (HUVECs) and EGM-2 growth medium were obtained from Cambrex (Walkersville, Md.). The cells were passaged in medium supplemented with 2% fetal calf serum (FCS) in tissue culture flasks at 37° C. and 5% CO2. Subculturing was performed using trypsin when 60-80% confluence was obtained as specified by the supplier.
Cryopreserved ampoules of passage 2 HUVECs were thawed and plated in 96 well tissue culture plates at 5,000 cells/cm^2. […]. In short, medium was aspirated from each well and the cells were washed with 200 μl Hepes buffered saline (HBSS) from Cambrex warmed to 37° C. 100 μl diluted celltiter solution (15 μl stock+85 μl EGM-2 containing 0.1% FCS) were added to each well and incubated for an additional 4 hours. Optical density was determined by microplate reader using a 530 nm filter after blank subtraction and data presented as OD±standard deviation. The final concentration of ethanol in the wells was less then 0.2% and had no effect on cell proliferation or viability.
All data are presented as representative experiments done in triplicate. Differences between subsets were analyzed using student t-test in Microsoft Excel. P<0.05 was considered statistically significant.
[…]. The celltiter assay is based on the reduction of the assay solution by dehydrogenase enzymes to a formazan dye that directly correlates to cell number.

[2] = tested on: human retinal endothelial cells; test: Transendothelial electrical resistance (TER), Example 4, retinal cells; type: cell-based; conditions: 1 μM, retinal endothelial cell monolayers
Procedure: (§1) […]. Assays were also performed in the same manner using passage 8 human brain endothelial cells and passage 8 human umbilical vein endothelial cells.
(§2) An initial TER measurement was taken for each insert using EVOM^2 voltohmmeter connected to an STX100 electrode (both from World Precision Instruments). Measurements were also taken at 24, 48, 72 and 144 hours. All data are presented as TER measurements/cm^2 of insert with TER of blank inserts subtracted.

[3] = tested on: human brain endothelial cells; test: Transendothelial electrical resistance (TER), Example 4, brain cells; type: cell-based; conditions: 1 μM, brain endothelial cell monolayers, except at the earliest time point
Procedure: as §1, §2

Akt = Akt phosphorylation (CASE ELISA kit for AKT S473) in retinal endothelial cells; type: cell-based, human; conditions: all of the concentrations (0.5-50.0 μM)
Procedure: The cells were grown in a 25 cm^2 flask to near confluence in EGM-2 medium (Lonza, Walkersville, Md.) containing 2% fetal calf serum (Lonza). […] The plate was incubated at 37° C. with 5% CO2 for 24 hours. […] After this incubation, the cells were fixed immediately with 4% formaldehyde, refrigerated, and the extent of phosphorylation of Akt determined using the Akt Cellular Activation of Signaling ELISA Kit (CASE™ Kit for AKT 5473; SABiosciences, Frederick, Md.) following the manufacturer's protocols. The CASE™ Kit for AKT S473 quantifies the amount of activated (phosphorylated) Akt protein relative to total Akt protein in parallel assays using a conventional ELISA format with colorimetric detection. The Akt phosphorylation site is serine 473 and is recognized by one of the antibodies used in one of the two parallel assays to provide a measure of activated Akt protein. The other antibody used in the other parallel assay recognizes Akt to provide a measure of total Akt protein. Both primary antibodies are detected using a horseradish peroxidase-labeled secondary antibody. Addition of the manufacturer's Developing Solution for 10 minutes, followed by addition of the manufacturer's Stop Solution, produces the result which can be measured colorimetrically.

[4] = tested on: human renal glomerular microvascular endothelial cells; test: ECIS, Example 12, glomerular cells; conditions: danazol 1 μM, S1P 1 μM

C#C[C@]1(O)CC[C@H]2[C@@H]3CCC4=Cc5oncc5C[C@]4(C)[C@H]3CC[C@@]21C [Danazol, 17α-pregna-2,4-dien-20-yno[2,3-d]isoxazol-17β-ol]
effect on cell proliferation [1]: complete arrest of cell proliferation | effect on TER [2]: enhanced TER measurements | effect on TER [3]: did not appear to have much effect | effect on Akt phosphorylation (Akt): caused an increase in Akt phosphorylation | time after treatment until which there was no effect on ECIS [4]: about 30 hours
